Assay results: ChEMBL document CHEMBL1909046, “DrugMatrix in vitro pharmacology data”

What was measured:
[1] = target: T1, Alpha-2A adrenergic receptor (Homo sapiens, UniProt P08913); assay type: cell membranes, Sf9, Membrane; conditions: sf9; also: in other assays of this panel Not Active means under 50% inhibition at 10 µM
T1 sequence (P08913 whole entry): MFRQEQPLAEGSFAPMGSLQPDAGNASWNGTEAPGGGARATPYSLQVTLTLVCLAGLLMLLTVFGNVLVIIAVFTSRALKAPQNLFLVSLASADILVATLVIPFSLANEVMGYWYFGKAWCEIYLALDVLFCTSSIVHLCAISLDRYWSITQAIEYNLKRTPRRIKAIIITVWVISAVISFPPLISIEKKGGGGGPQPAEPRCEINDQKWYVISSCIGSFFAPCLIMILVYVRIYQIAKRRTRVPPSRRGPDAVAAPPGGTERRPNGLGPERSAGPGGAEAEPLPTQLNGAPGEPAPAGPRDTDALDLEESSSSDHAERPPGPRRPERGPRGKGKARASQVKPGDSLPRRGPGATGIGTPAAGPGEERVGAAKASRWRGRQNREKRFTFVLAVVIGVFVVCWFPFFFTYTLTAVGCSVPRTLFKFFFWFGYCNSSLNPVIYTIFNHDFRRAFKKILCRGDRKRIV

Carbonic anhydrase 2 = Carbonic anhydrase 2 (Homo sapiens, UniProt P00918); test: DRUGMATRIX: Carbonic Anhydrase II enzyme inhibition (substrate: 4-Nitrophenyl acetate (4-NPA)); assay type: tissue-based, Erythrocyte; conditions: erythrocyte; Not Active = under 50% inhibition at 10 µM
[2] = target: T2, Cholecystokinin receptor type A (Homo sapiens, UniProt P32238); assay type: cell membranes, Membrane; conditions: 1321-n1; also: in other assays of this panel Not Active means under 50% inhibition at 10 µM
T2 sequence (P32238 whole entry): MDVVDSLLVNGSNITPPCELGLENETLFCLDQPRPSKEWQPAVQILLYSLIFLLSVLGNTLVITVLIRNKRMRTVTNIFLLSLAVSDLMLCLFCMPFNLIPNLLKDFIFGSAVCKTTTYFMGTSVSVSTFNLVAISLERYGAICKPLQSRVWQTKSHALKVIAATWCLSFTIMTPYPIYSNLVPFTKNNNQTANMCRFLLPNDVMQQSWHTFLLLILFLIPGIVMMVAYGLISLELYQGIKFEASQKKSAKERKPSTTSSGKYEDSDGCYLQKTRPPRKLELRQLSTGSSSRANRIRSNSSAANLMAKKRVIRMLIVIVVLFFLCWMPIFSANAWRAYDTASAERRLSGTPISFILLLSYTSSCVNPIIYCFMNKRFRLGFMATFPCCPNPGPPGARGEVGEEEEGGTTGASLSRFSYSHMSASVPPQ

D(1A) dopamine receptor = D(1A) dopamine receptor (Homo sapiens, UniProt P21728); test: DRUGMATRIX: Dopamine D1 radioligand binding (ligand: [3H] SCH-23390); assay type: cell membranes, CHO, Membrane; conditions: cho; Not Active = under 50% inhibition at 10 µM
D(1A) dopamine receptor, sequence (P21728 whole entry): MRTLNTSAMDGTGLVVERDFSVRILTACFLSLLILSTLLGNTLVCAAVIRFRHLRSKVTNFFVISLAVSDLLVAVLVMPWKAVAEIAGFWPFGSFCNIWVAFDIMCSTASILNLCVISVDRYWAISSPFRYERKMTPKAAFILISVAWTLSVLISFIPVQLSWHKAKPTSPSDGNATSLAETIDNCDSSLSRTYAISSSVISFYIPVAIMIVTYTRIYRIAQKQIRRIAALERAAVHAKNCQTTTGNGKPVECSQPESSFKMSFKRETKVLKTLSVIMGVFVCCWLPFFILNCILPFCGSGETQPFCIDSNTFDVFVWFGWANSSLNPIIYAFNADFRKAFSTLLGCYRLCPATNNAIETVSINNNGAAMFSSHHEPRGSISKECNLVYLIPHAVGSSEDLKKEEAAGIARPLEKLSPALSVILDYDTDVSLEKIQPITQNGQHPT

[3] = DRUGMATRIX: Glutamate, NMDA, Phencyclidine radioligand binding (ligand: [3H] TCP); assay type: cell membranes, Rattus norvegicus, Wistar, Cerebral cortex, Membrane; conditions: Not Active = under 50% inhibition at 10 µM
[4] = DRUGMATRIX: Interleukin IL-1 radioligand binding (ligand: [125I] interleukin 1beta); assay type: cell membranes, Membrane; conditions: nih3t3; Not Active = under 50% inhibition at 10 µM
[5] = target: T3, Cysteinyl leukotriene receptor 1 (Homo sapiens, UniProt Q9Y271); assay type: cell membranes, CHO-K1, Membrane; conditions: cho-k1; also: in other assays of this panel Not Active means under 50% inhibition at 10 µM
T3 sequence (Q9Y271 whole entry): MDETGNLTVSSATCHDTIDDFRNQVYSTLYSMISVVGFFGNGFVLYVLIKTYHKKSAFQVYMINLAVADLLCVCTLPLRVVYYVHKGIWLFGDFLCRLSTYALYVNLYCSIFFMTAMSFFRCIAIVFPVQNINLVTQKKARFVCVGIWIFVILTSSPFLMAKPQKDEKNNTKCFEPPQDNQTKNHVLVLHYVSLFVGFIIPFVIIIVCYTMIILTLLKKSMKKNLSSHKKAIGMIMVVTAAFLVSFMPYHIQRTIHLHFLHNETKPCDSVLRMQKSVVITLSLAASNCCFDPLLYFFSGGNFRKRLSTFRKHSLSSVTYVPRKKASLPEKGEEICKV

[6] = target: T4, Amine oxidase [flavin-containing] A (Homo sapiens, UniProt P21397); test: DRUGMATRIX: Monoamine Oxidase MAO-A enzyme inhibition (substrate: Kynuramine); set-up: species or system BTI-TN-5B1-4; conditions: bti-tn-5b1-4; Not Active = under 50% inhibition at 10 µM
T4 sequence (P21397 whole entry): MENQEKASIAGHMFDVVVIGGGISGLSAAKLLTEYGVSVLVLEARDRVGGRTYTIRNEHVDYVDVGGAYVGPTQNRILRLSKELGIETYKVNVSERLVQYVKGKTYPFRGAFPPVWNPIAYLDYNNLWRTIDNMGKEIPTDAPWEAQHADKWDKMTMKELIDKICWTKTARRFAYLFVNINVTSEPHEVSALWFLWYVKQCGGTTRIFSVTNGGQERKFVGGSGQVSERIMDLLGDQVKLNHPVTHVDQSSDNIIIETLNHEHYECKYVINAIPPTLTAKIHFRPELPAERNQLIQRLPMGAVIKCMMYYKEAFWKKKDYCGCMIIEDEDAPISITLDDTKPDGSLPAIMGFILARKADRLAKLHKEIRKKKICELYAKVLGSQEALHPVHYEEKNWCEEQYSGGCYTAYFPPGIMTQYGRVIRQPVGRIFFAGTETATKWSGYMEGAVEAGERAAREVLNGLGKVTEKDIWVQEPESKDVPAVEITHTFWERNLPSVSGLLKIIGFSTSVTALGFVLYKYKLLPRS

[7] = DRUGMATRIX: Phorbol Ester radioligand binding (ligand: [3H] PDBu); assay type: cell membranes, Mus musculus, ICR, Brain, Membrane; conditions: Not Active = under 50% inhibition at 10 µM
[8] = DRUGMATRIX: Phosphodiesterase PDE3 enzyme inhibition (substrate: [3H]cAMP + cAMP); assay type: tissue-based, Homo sapiens; conditions: platelet; Not Active = under 50% inhibition at 10 µM
[9] = DRUGMATRIX: Platelet-Derived Growth Factor (PDGF) radioligand binding (ligand: [125I] PDGF); assay type: cell-based; conditions: nih3t3; Not Active = under 50% inhibition at 10 µM
Neutrophil elastase = target: T5, Neutrophil elastase (Homo sapiens, UniProt P08246); assay type: tissue-based;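 also: inhibition of neutrophil elastase enzyme activity, measured with a p-nitroanilide-linked peptide substrate; in other assays of this panel Not Active means under 50% inhibition at 10 µM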
T5 sequence (P08246 whole entry): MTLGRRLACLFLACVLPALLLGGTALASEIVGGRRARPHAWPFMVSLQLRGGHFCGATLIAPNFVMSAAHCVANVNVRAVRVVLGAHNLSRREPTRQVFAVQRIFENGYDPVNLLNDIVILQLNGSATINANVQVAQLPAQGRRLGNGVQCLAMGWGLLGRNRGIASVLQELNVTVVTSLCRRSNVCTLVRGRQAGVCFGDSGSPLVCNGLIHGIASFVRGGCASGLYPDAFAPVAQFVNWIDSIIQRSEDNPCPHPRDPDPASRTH

[10] = DRUGMATRIX: Purinergic P2X radioligand binding (ligand: [3H] alpha, beta-Methylene-ATP); assay type: cell membranes, Oryctolagus cuniculus, New Zealand albino, Urinary bladder, Membrane; conditions: Not Active = under 50% inhibition at 10 µM
Estrogen receptor beta = Estrogen receptor beta (Homo sapiens, UniProt Q92731); conditions: sf9; also: in other assays of this panel Not Active means under 50% inhibition at 10 µM
Estrogen receptor beta, sequence (Q92731 whole entry): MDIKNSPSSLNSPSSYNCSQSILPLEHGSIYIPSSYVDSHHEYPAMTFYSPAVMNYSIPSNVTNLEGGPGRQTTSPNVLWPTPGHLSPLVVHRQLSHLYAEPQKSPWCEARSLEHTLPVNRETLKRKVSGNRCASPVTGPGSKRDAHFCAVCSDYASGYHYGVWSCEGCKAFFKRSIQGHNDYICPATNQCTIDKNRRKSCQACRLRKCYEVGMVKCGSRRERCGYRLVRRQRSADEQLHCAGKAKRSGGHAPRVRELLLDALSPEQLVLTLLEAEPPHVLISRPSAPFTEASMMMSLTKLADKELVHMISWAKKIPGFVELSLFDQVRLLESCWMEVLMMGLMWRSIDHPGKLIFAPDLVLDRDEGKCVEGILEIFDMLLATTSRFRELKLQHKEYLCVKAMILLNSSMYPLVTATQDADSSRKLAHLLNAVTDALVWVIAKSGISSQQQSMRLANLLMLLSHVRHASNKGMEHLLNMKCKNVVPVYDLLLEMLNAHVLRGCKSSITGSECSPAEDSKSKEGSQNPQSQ

O=c1[nH]cc(F)c(=O)[nH]1 [FLUOROURACIL]
Not Active: IC50 [1] | IC50 (Carbonic anhydrase 2) | IC50 [2] | IC50 (D(1A) dopamine receptor) | IC50 [3] | Ki [3] | IC50 [4] | Ki [4] | IC50 [5] | IC50 [6] | IC50 [7] | Ki [7] | IC50 [8] | Ki [8] | IC50 [9] | Ki [9] | IC50 (Neutrophil elastase) | IC50 [10] | Ki [10] | IC50 (Estrogen receptor beta)

O=C1OCCN1/N=C/c1ccc([N+](=O)[O-])o1 [FURAZOLIDONE]
Not Active: IC50 [1] | IC50 (Carbonic anhydrase 2) | IC50 [2] | IC50 (D(1A) dopamine receptor) | IC50 [3] | Ki [3] | IC50 [4] | Ki [4] | IC50 [5] | IC50 [6] | IC50 [7] | Ki [7] | IC50 [8] | Ki [8] | IC50 [9] | Ki [9] | IC50 (Neutrophil elastase) | IC50 [10] | Ki [10] | IC50 (Estrogen receptor beta)

CC[N+](CC)(CC)CCOc1cccc(OCC[N+](CC)(CC)CC)c1OCC[N+](CC)(CC)CC.[I-].[I-].[I-] [GALLAMINE TRIETHIODIDE]
Not Active: IC50 [1] | IC50 (Carbonic anhydrase 2) | IC50 [2] | IC50 (D(1A) dopamine receptor) | IC50 [3] | Ki [3] | IC50 [4] | Ki [4] | IC50 [5] | IC50 [6] | IC50 [7] | Ki [7] | IC50 [8] | Ki [8] | IC50 [9] | Ki [9] | IC50 (Neutrophil elastase) | IC50 [10] | Ki [10] | IC50 (Estrogen receptor beta)

Nc1nc2c(ncn2COC(CO)CO)c(=O)[nH]1 [GANCICLOVIR]
Not Active: IC50 [1] | IC50 (Carbonic anhydrase 2) | IC50 [2] | IC50 (D(1A) dopamine receptor) | IC50 [3] | Ki [3] | IC50 [4] | Ki [4] | IC50 [5] | IC50 [6] | IC50 [7] | Ki [7] | IC50 [8] | Ki [8] | IC50 [9] | Ki [9] | IC50 (Neutrophil elastase) | IC50 [10] | Ki [10] | IC50 (Estrogen receptor beta)

COc1c(N2CCNC(C)C2)c(F)cc2c(=O)c(C(=O)O)cn(C3CC3)c12 (stereo not given) [GATIFLOXACIN]
Not Active: IC50 [1] | IC50 (Carbonic anhydrase 2) | IC50 [2] | IC50 (D(1A) dopamine receptor) | IC50 [3] | Ki [3] | IC50 [4] | Ki [4] | IC50 [5] | IC50 [6] | IC50 [7] | Ki [7] | IC50 [8] | Ki [8] | IC50 [9] | Ki [9] | IC50 (Neutrophil elastase) | IC50 [10] | Ki [10] | IC50 (Estrogen receptor beta)

NCC(=O)O [GLYCINE]
Not Active: IC50 [1] | IC50 (Carbonic anhydrase 2) | IC50 [2] | IC50 (D(1A) dopamine receptor) | IC50 [3] | Ki [3] | IC50 [4] | Ki [4] | IC50 [5] | IC50 [6] | IC50 [7] | Ki [7] | IC50 [8] | Ki [8] | IC50 [9] | Ki [9] | IC50 (Neutrophil elastase) | IC50 [10] | Ki [10] | IC50 (Estrogen receptor beta)

CC1(C)[C@@H](O[C@H]2O[C@H](C(=O)O)[C@@H](O)[C@H](O)[C@H]2O[C@@H]2O[C@H](C(=O)O)[C@@H](O)[C@H](O)[C@H]2O)CC[C@]2(C)[C@H]3C(=O)C=C4[C@@H]5C[C@@](C)(C(=O)O)CC[C@]5(C)CC[C@@]4(C)[C@]3(C)CC[C@@H]12 [GLYCYRRHIZIN]
Not Active: IC50 [1] | IC50 (Carbonic anhydrase 2) | IC50 [2] | IC50 (D(1A) dopamine receptor) | IC50 [3] | Ki [3] | IC50 [4] | Ki [4] | IC50 [5] | IC50 [6] | IC50 [7] | Ki [7] | IC50 [8] | Ki [8] | IC50 [9] | Ki [9] | IC50 (Neutrophil elastase) | IC50 [10] | Ki [10] | IC50 (Estrogen receptor beta)
